We go through 7 molecules from US12521393B2, “Cytotoxicity targeting chimeras for CCR2-expressing cells” (GLAXOSMITHKLINE INTELLECTUAL PROPERTY DEVELOPMENT LIMITED, priority 2021, dated 2026).

Test [1] relates to CCR2 expressing cells (CD11b+Ly6c+Hi) in peripheral blood. As to the kind of experiment: In vivo depletion assay, flow cytometry of peripheral blood (Example 201). More on the design: species or system human CCR2 knock-in mice (C57 background). The settings on record: hCCR2 knock-in mice, IV 0.1 mpk compound + 10 mpk anti-cotinine antibody (SEQ ID NO: 13/14), peripheral blood at 48 hr. Put shortly:
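Mice dosed with compound formulated in saline/DMSO/PBS, with anti-cotinine antibody (rabbit variable region, mouse IgG2a Fc) where required, pre-incubated 30 min at room temperature. Terminal peripheral blood RBC-lysed, Fc-blocked, stained for CD45, CD3, CD11b, Ly6C, human CCR2 and 7AAD; percent depletion of CD11b+Ly6c+Hi cells determined by flow cytometry.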
For orientation: Flow cytometry measures light scatter and fluorescence of single cells or particles in a stream.

Test [2] addresses human alpha1 nicotinic acetylcholine (nACh) receptor (Homo sapiens, UniProt P02708). As to the kind of experiment: Nicotinic acetylcholine receptor antagonism assay, IONFlux automated patch clamp (Example 203). The settings on record: for IC50: antagonism of ACh-stimulated human alpha1 nAChR current, patch clamp; for Emax at 10 µM: maximum percentage antagonism at maximum concentration tested 10 μM; for Emax at 10 µM / Emax at 100 µM: read-out: Maximum Response; for Emax at 100 µM: maximum percentage antagonism at maximum concentration tested 100 μM. Type of test: cell-based. Here is the method:
Cells expressing human alpha1 nicotinic acetylcholine (nACh) receptor (nAChR) were washed and dissociated using Trypsin containing buffer. Cells were then washed and seeded at a density of 3-5 million cells/mL and allowed to grow for 3 days. Then, 60-80 μL of cells were added to plates and incubated with dose response of an ARM compound of Formula (I) with a top concentration of either 10 μM or 100 μM. The receptor was then stimulated via addition of acetylcholine (ACh) and activation of the receptor was monitored via the IONFlux automated patch clamp system. IonFlux Data Analyzer software was utilized to perform leak subtraction and measure (min) peak current amplitude.
Data processing: (1) Current values recorded for vehicle only applications in individual traps/patterns were subtracted from corresponding current amplitude values for control, test article and control+test article. (2) Control response was calculated as % of the average response of the 3rd out of total 3 ACh (10 mM) applications alone. In rare situations, if the 3rd ACh response was obscured due to technical artifacts, the 2nd and/or 1st ACh (10 mM) application was considered as control. The peak current amplitude generated in the presence of each test article concentration was then used to calculate the % inhibition as compared to control response (10 mM ACh alone). These estimates were further corrected for vehicle response and run down corrected by normalizing with time matched control responses (10 mM ACh alone). The corrected percentages were then fit with a non-linear function in GraphPad Prism 6 (or later versions) to determine the IC50.
Exclusion criteria: (i) any n's with poor recording quality, (ii) control current amplitude <500 pA or (iii) significant outliers, as determined by the Grubbs test.
ARMs compounds of Formula (I) of the invention were tested for antagonism of the nAChR in the above assay in […] experimental runs and the results are shown in Table 7 below. Antagonistic activity of the compounds of Formula (I) of the invention is reported as an IC50 value (half maximal inhibitory concentration) and the maximum percentage antagonism observed at the highest concentration of compound of Formula (I) tested, as indicated in Table 7. For compounds tested in more than one experimental run, the IC50 value is reported as an average
On the technique in general: Patch clamp records ionic current or voltage across a cell membrane.

The subject of test [3] is endogenous target monocytes in human PBMC. As to the kind of experiment: PBMC ex vivo monocyte depletion flow cytometry assay (Example 200). Format: cell-based. The settings on record: with anti-cotinine antibody (SEQ ID NO: 11/12), 18-24 hours, EC50 in molar, read-out: Ex Vivo Depletion Assay pEC50 (converted). Put shortly: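 Monocyte depletion is reported as pEC50, averaged or given individually across runs, and read by flow cytometry staining CD45, CD14 and CD4 with a viability dye. Compounds, diluted four-fold over 11 points from 1 mM DMSO stocks, were combined with 30 μg/mL Fc-enhanced anti-cotinine antibody and human PBMC, then incubated 18-24 h at 37° C.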

Test [4] has as its target anti-cotinine antibody (SEQ ID NO: 11/12, rabbit variable region with human IgG1 Fc DE mutation). Briefly: SPR binding of anti-cotinine antibody to ARM compounds, Biacore T200, 37° C. (Example 202). The settings on record: SPR Biacore T200, 37° C., pH 7.4, antibody SEQ ID NO: 11/12 captured on protein A; Kd in molar. How it is done:
Anti-cotinine antibodies having a heavy chain sequence of SEQ ID NO: 11 and a light chain sequence of SEQ ID NO: 12 (rabbit variable region with human IgG1 Fc domain containing a DE mutation (S239D/1332E)) were captured on one or more flow cells of a protein A sensor chip (Cytiva) using a Biacore T200 while reserving flow cell 1 as a reference. Following capture, a 3000 second wait step was included to reduce drift during compound analysis. ARM compounds of Formula (I) were then injected at 100 μL/min with 200 and 2000 second association and dissociation times. The entire experiment was run at 37° C. with running buffer containing 10 mM HEPES pH 7.4, 150 mM NaCl, 0.005% P20 and 1% DMSO. ARM compounds of Formula (I) were titrated with a top concentration of 200 nM using a 3-fold 5-point dilution series and a corresponding 5-injection buffer cycle was run for blank subtraction. Data were double referenced by subtracting the response of the reference flow cell from that of the antibody-containing flow cell and subsequently subtracting the referenced blank sensorgrams. Following compound analysis, the surface was regenerated using a 30 second injection of pH 1.5 glycine at a flow rate of 30 μL/min after which antibody was re-captured. The experiment was run using Biacore T200 control software and evaluated using Biacore T200 Evaluation software. Curves were fit with a 1:1 kinetic binding model to obtain kon (1/Ms), koff(1/s), Kd (M) determined as koff/kon, and residence time determined as 1/koff (s).
Anti-cotinine antibody was tested for binding to ARMs compounds of Formula (I) of the invention in the above assay in or more experimental runs and the results are shown in Table 5 below. Affinity is reported as a pKd value. The pKd value is the negative log of the Kd value, wherein the Kd value is the dissociation constant measured in molar (M) as noted above. For compounds tested in more than one experimental run, the pKd value is reported as an average
On the technique in general: Surface plasmon resonance follows binding to a sensor surface in real time, without labels.

Bounds are passed on as bounds.

Sequence of human alpha1 nicotinic acetylcholine (nACh) receptor (P02708 21-457): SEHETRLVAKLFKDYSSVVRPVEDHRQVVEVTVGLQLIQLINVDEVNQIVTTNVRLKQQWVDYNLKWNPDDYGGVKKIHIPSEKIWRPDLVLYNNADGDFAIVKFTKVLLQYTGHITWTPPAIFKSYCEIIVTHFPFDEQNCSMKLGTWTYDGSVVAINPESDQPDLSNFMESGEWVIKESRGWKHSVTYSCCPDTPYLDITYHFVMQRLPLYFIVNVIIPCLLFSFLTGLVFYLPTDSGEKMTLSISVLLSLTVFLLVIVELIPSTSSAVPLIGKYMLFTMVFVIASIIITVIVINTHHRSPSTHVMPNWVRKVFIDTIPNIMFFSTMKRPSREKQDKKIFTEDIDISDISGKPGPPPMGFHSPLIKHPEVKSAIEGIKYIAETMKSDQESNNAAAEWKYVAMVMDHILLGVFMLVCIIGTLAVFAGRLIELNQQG
Sequence of human alpha1 nicotinic acetylcholine (nACh) receptor (P11230 24-501 partner): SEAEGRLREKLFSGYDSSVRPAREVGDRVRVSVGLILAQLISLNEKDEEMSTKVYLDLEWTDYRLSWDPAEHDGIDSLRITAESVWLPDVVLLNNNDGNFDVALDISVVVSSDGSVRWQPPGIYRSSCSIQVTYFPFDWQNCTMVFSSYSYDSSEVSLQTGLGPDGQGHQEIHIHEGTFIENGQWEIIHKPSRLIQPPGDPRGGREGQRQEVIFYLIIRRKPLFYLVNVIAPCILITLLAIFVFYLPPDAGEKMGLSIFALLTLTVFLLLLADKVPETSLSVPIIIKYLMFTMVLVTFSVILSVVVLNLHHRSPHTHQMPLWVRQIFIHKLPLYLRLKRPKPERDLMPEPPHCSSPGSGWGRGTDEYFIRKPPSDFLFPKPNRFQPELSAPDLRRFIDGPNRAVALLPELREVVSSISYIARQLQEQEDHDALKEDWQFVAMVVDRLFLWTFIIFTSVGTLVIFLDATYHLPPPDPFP
Sequence of human alpha1 nicotinic acetylcholine (nACh) receptor (Q07001 22-517 partner): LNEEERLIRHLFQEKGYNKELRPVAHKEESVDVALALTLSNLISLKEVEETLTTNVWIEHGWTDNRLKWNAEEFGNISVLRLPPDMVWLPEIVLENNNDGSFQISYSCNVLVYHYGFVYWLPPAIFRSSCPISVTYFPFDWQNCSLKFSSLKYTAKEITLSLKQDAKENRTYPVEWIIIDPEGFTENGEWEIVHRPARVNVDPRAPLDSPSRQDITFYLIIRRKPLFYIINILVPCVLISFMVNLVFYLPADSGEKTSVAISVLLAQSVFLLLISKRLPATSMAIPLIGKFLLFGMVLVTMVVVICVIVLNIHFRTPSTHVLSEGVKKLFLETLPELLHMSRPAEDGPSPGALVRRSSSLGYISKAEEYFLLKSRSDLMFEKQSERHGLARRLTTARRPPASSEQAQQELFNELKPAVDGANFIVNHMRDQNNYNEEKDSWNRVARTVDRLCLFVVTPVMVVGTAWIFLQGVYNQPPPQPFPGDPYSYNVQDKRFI

Turning to `CC(C)N(C)[C@@H]1CC[C@H](N2CC[C@H](Nc3ncnc4ccc(C(F)(F)F)cc34)C2=O)[C@H](NC(=O)c2ccc(C3CCN(CCOCCOCCNC(=O)[C@H]4CC(=O)N(C)[C@@H]4c4cccnc4)CC3)cn2)C1` [Example 94, N-((1R,2S,5R)-5-(Isopropyl(methyl)amino)-2-((S)-2-oxo-3-((6-(trifluoromethyl)quinazolin-4-yl)amino)pyrrolidin-1-yl)cyclohexyl)-5-(1-(2-(2-(2-((2S,3S)-1-methyl-5-oxo-2-(pyridin-3-yl)pyrrolidine-3-carboxamido)ethoxy)ethoxy)ethyl)piperidin-4-yl)picolinamide], the “% Depletion of CCR2 expressing cells” value in test [1] is listed as 88.66%. In addition, in test [2], the IC50 (commonly the concentration needed to halve the response being measured) was 4660 nM and the Emax at 10 µM amounted to 67.1%. Besides, the EC50 in test [3] was 2 nM.

Take `CC(C)N(C)[C@@H]1CC[C@H](N2CC[C@H](Nc3ncnc4ccc(C(F)(F)F)cc34)C2=O)[C@H](NC(=O)[C@H]2CC[C@@H](NC(=O)CCOCCCNC(=O)CCCNC(=O)[C@H]3CC(=O)N(C)[C@@H]3c3cccnc3)CC2)C1` [Example 17, (2S,3S)-N-(4-((3-(3-(((1S,4s)-4-(((1R,2S,5R)-5-(Isopropyl(methyl)amino)-2-((S)-2-oxo-3-((6-(trifluoromethyl)quinazolin-4-yl)amino)pyrrolidin-1-yl)cyclohexyl)carbamoyl)cyclohexyl)amino)-3-oxopropoxy)propyl)amino)-4-oxobutyl)-1-methyl-5-oxo-2-(pyridin-3-yl)pyrrolidine-3-carboxamide]: in test [1], the “% Depletion of CCR2 expressing cells” value was 91%. Moreover, in test [2], the half-inhibitory concentration (IC50) was no less than 100000 nM and the Emax at 100 µM turned out to be 55.1%. The EC50 in test [3] was 0.631 nM.

Regarding `CC(C)N(C)[C@@H]1CC[C@H](N2CC[C@H](Nc3ncnc4ccc(C(F)(F)F)cc34)C2=O)[C@H](NC(=O)[C@H]2C[C@H](NC(=O)CCOCCOCCOCCNC(=O)[C@H]3CC(=O)N(C)[C@@H]3c3cccnc3)C2)C1` [Example 27, (2S,3S)-N-(2-(2-(2-(3-(((1R,3r)-3-(((1R,2S,5R)-5-(Isopropyl(methyl)amino)-2-((S)-2-oxo-3-((6-(trifluoromethyl)quinazolin-4-yl)amino)pyrrolidin-1-yl)cyclohexyl)carbamoyl)cyclobutyl)amino)-3-oxopropoxy)ethoxy)ethoxy)ethyl)-1-methyl-5-oxo-2-(pyridin-3-yl)pyrrolidine-3-carboxamide], the “% Depletion of CCR2 expressing cells” value in test [1] is recorded as 80%. For the same molecule, in test [2], the half-inhibitory concentration (IC50) is 93700 nM and the Emax at 100 µM turned out to be 53.8%. Moreover, the EC50 in test [3] was 10 nM.

As to `CC(C)N(C)[C@@H]1CC[C@H](N2CC[C@H](Nc3ncnc4ccc(C(F)(F)F)cc34)C2=O)[C@H](NC(=O)c2ccc(N3CCC(C(=O)NCCOCCOCCNC(=O)[C@H]4CC(=O)N(C)[C@@H]4c4cccnc4)CC3)cc2)C1` [Example 130, 1-(4-(((1R,2S,5R)-5-(Isopropyl(methyl)amino)-2-((S)-2-oxo-3-((6-(trifluoromethyl)quinazolin-4-yl)amino)pyrrolidin-1-yl)cyclohexyl)carbamoyl)phenyl)-N-(2-(2-(2-((2S,3S)-1-methyl-5-oxo-2-(pyridin-3-yl)pyrrolidine-3-carboxamido)ethoxy)ethoxy)ethyl)piperidine-4-carboxamide], the “% Depletion of CCR2 expressing cells” value in test [1] is recorded as 81.81%. Besides, in test [2], the IC50 was no less than 10000 nM and the Emax at 10 µM amounted to 16.8%. Moreover, in test [3], the EC50 is 0.631 nM.

As for `CC(C)N(C)[C@@H]1CC[C@H](N2CC[C@H](Nc3ncnc4ccc(C(F)(F)F)cc34)C2=O)[C@H](NC(=O)[C@H]2CC[C@H](c3ccc(C(=O)NCCOCCOCCNC(=O)[C@H]4CC(=O)N(C)[C@@H]4c4cccnc4)cc3)CC2)C1` [Example 140, (2S,3S)-N-(2-(2-(2-(4-((1R,4r)-4-(((1R,2S,5R)-5-(Isopropyl(methyl)amino)-2-((S)-2-oxo-3-((6-(trifluoromethyl)quinazolin-4-yl)amino)pyrrolidin-1-yl)cyclohexyl)carbamoyl)cyclohexyl)benzamido)ethoxy)ethoxy)ethyl)-1-methyl-5-oxo-2-(pyridin-3-yl)pyrrolidine-3-carboxamide], the “% Depletion of CCR2 expressing cells” value in test [1] is given as 89.13%. Also, in test [2], the 50% inhibitory concentration (IC50) was no less than 10000 nM and the Emax at 10 µM came out at 18.2%. Moreover, in test [3], the EC50 was 0.398 nM.

For `CC(C)N(C)[C@@H]1CC[C@H](N2CC[C@H](Nc3ncnc4ccc(C(F)(F)F)cc34)C2=O)[C@H](NC(=O)C2CCN(c3ccc(C(=O)NCCOCCOCCNC(=O)[C@H]4CC(=O)N(C)[C@@H]4c4cccnc4)cc3)CC2)C1` [Example 142, N-((1R,2S,5R)-5-(Isopropyl(methyl)amino)-2-((S)-2-oxo-3-((6-(trifluoromethyl)quinazolin-4-yl)amino)pyrrolidin-1-yl)cyclohexyl)-1-(4-((2-(2-(2-((2S,3S)-1-methyl-5-oxo-2-(pyridin-3-yl)pyrrolidine-3-carboxamido)ethoxy)ethoxy)ethyl)carbamoyl)phenyl)piperidine-4-carboxamide], the “% Depletion of CCR2 expressing cells” value in test [1] turned out to be 79.27%. Moreover, in test [2], the IC50 was no less than 10000 nM and the Emax at 10 µM turned out to be 13.1%. In addition, the EC50 in test [3] was 0.398 nM.

In the case of `CC(C)N(C)[C@@H]1CC[C@H](N2CC[C@H](Nc3ncnc4ccc(C(F)(F)F)cc34)C2=O)[C@H](NC(=O)[C@H]2CC[C@@H](NC(=O)COCCOCCNC(=O)CNC(=O)[C@H]3CC(=O)N(C)[C@@H]3c3cccnc3)CC2)C1` [Example 171, (2S,3S)-N-(2-((2-(2-(2-(((1S,4s)-4-(((1R,2S,5R)-5-(Isopropyl(methyl)amino)-2-((S)-2-oxo-3-((6-(trifluoromethyl)quinazolin-4-yl)amino)pyrrolidin-1-yl)cyclohexyl)carbamoyl)cyclohexyl)amino)-2-oxoethoxy)ethoxy)ethyl)amino)-2-oxoethyl)-1-methyl-5-oxo-2-(pyridin-3-yl)pyrrolidine-3-carboxamide], in test [4], the “pKd of Antibody for ARM Compound of Formula (I)” value is recorded as 8.7865.
